Test results published in patent US4595698A, “Physiologically active substance, arphamenine and production thereof” (Zaidan Hojin Biseibutsu Kagaku Kenkyu Kai, priority 1982, dated 1986).
Where two headings read alike, the source gives them in different places.

Legend:
aminopeptidase B = molecular target: T1, aminopeptidase B (Rattus norvegicus, UniProt O09175); assay: Inhibition of aminopeptidase B (arginine-β-naphthylamide degradation, modified Hoppusu method); type: biochemical
T1 construct: an aminopeptidase B which had been purified with DEAE-Cellulose; from tissue
T1 sequence (O09175 1-650): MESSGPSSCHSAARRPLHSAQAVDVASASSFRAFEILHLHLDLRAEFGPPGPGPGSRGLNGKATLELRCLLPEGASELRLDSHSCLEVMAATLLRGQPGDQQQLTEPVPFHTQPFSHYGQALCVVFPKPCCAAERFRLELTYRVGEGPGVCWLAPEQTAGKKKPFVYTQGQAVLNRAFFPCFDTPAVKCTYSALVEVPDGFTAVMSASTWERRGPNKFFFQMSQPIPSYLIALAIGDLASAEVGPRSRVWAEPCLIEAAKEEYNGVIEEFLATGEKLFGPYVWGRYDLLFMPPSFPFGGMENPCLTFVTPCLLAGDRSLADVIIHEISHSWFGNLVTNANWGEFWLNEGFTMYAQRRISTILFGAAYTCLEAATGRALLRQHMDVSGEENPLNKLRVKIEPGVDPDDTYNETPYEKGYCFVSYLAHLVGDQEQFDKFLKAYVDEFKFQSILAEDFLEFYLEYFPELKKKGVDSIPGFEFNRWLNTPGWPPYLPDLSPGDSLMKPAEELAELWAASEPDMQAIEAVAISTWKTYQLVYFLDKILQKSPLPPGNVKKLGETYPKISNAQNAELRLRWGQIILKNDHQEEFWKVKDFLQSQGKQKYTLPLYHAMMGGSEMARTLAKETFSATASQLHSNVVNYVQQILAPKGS
Protocol: Tracing of arphamenine which was made during the course of cultivation of the arphamenine-producing strain, as well as during the course of recovery and purification of arphamenine was conducted by determining the anti-aminopeptidase B potency of arphamenine according to the following methods.
In detail, 0.5 ml of 0.1 M tris-hydrochloride buffer solution (pH 7.0) and 0.25 ml of a solution containing an arphamenine specimen were added to 0.25 ml of a substrate solution containing 0.002 M arginine-β-naphthylamide. The mixed solution so obtained was heated at 37° C. for 3 minutes. To the heated solution was added 5 μl of a solution of an aminopeptidase B which had been purified with DEAE-Cellulose according to the enzyme-purification technique of Hoppusu et al. The resulting mixture was reacted for 30 minutes at 37° C., and the resultant reaction mixture was admixed with 1 ml of 1.0 M acetate buffer solution (pH 4.2) containing Fast Garnet GBC (o-aminoazotoluene, diazonium salt) at a concentration of 1 mg/ml and a surfactant "Tween" 20 at a concentration of 10% to stop the enzyme reaction. After allowing the resulting mixture to stand at ambient temperature for 15 minutes, absorbance (a) at 525 nm of the reaction solution was measured. On the other hand, adsorbance (b) at 525 nm of a control reaction solution obtained from the blank test using the buffer solution containing no arphamenine was measured. Percent of inhibition to the aminopeptidase B was calculated from the equation [(b-a)/b]×100.

[1] = test system: cell-mediated immunity (D.T.H. to SRBC); assay: D.T.H. to SRBC in tumor-bearing (Sarcoma 180) mice, Test Example 2 (1); type: in vivo, CDF1 mice; conditions: for Increased thickness of footpad / T/C (%): 4 days; for T/C (%): control = 100; for cell-mediated immunity depressed by the tumor (in words): tumor-bearing
Protocol: The swelling degree on the footpad in mice was evaluated in the same way as in Test Example 1, except that the CDF1 mice employed for the test previously received an intraperitoneal inoculation of 10^6 Sarcoma 180 cells, and that arphamenine A was administered intraperitoneally once daily for 4 consecutive days, including the day of inoculation of SRBC, and two days after the administration, SRBC was given to the treated mice to elicit D.T.H. response.

[2] = test system: cell-mediated immunity (D.T.H. to picryl chloride); assay: D.T.H. to picryl chloride in mice bearing Ascites Sarcoma 180 tumor, Test Example 2 (2); type: in vivo, CDF1 mice; conditions: for Increased thickness of auricles / T/C (%): Table 4, 6 times/day, Day 1 to Day 8; for T/C (%): control = 100
Protocol: (2) D.T.H. to picryl chloride
In mice bearing Ascites Sarcoma 180 tumor, the effect of arphamenine A on D.T.H. to picryl chloride as antigen was investigated. Thus, 10^6 cells of Ascites Sarcoma 180 were transplanted intraperitoneally into CDF1 mice (12-week-old, female, 6 mice per group). The day of this transplantation was designated as Day 0. On Day 1, a shaved area (25 mm×15 mm) of the abdomen of the mice was immunized with 0.6 ml of a solution of 6% picryl chloride in ethanol which had been absorbed to a mass of cut absorbent cotton (20 mm×20 mm×2 mm in size). On Day 8, the thickness of the auricles of both ears was measured with a dial gauge to obtain a baseline value (a). Then, both auricles were elicited for the D.T.H. response with a solution of 1% picryl chloride in olive oil which had been absorbed to a mass of cut absorbent cotton (10 mm×4 mm×1 mm in size). On Day 9, the swelling degree on the elicited auricles was measured with a dial gauge to obtain a value (b). The baseline value (a) was subtracted from the value (b) to determine an increase in the thickness of the auricles (b-a) in the control group of mice (c).
Separately, 0.5, 0.05 or 0.005 mg/kg of the test compound dissolved in physiological saline was orally administered to another group of CDF1 mise 6 times/day for consecutive days of from Day 1 to Day 8 inclusive, and then the picryl chloride elicitation was carried out with the treated group of mice in the same way as in the control group of mice. The increase in the thickness of both auricles (b'-a') in this treated group of mice (T) was determined in the same way as the control group of mice.
The rate (T/C, %) of the increased thickness of auricles of the treated group (T) in term of that for the control group (c) was calculated from the following equation [formula]
Assumed that the value for the control group was evaluated to be 100%, the activity of the test compound to potentiate cell-mediated immunity was estimated.

Ehrlich Solid Tumor = assay: Anti-tumor activity against Ehrlich Solid Tumor, Test Example 3; type: in vivo, ddY mice; conditions: for Average size of tumor / Average weight of tumor / TIR (%), tumor size / TIR (%), tumor weight: 7 times on alternate days, day 30; for host-mediated anti-tumor effect (in words): summary statement
Protocol: Anti-tumor activity of arphamenine against Ehrlich Solid Tumor.
3×10^6 cells of Ehrlich ascites tumor were transplanted subcutaneously into the flank of ddY mice (8-week old, female, 5 mice per group). The day of this transplantation was designated as Day 0. Then, 0.5, 0.05 or 0.005 mg/kg of the test compound dissolved in physiological saline solution was orally administered to the mice a total of 7 times on alternate days until Day 15, beginning on Day 1. On day 30, the size (shorter diameter^2 ×longer diameter/2) of tumor and the weight of tumor were measured. The results in this treated group of mice were compared with those in the control group of mice to calculate tumor inhibition rate (TIR, %) according to the following equation: [formula] where C denotes the size or weight of tumor in the control group, and T denotes the size or weight of tumor in the treated group.

mice = assay: Acute toxicity tests in mice by intravenous injection; type: in vivo
Protocol: Acute toxicity tests in mice by intravenous injection have shown that no deaths are caused by arphamenine A in an iv. dose of 250 mg/kg or by arphamenine B in an iv. dose of 150 mg/kg. […] These new compounds are therefore useful as immunopotentiators and anti-tumor immunomodulators or as adjuvants to various chemotherapeutic agents for use in the treatment of carcinomas.

[3] = test system: cell-mediated immunity (D.T.H. response to sheep red blood cells); assay: Delayed Type Hypersensitivity (D.T.H.) to SRBC in normal mice, Test Example 1; conditions: for Increased thickness of footpad / T/C (%): single oral dose; for T/C (%): control = 100
Protocol: Effect of arphamenine on cell-mediated immunity in normal mice.
Effect of arphamenines A and B on the cell-mediated immunity was tested according to a known Delayed Type Hypersensitivity (D.T.H.) technique (see P. H. Lagrange, G. B. Mackaness and T. E. Miller: "J. Exp. Med.", 139, 1529~1539 (1974)) using mice immunized with sheep red blood cells (SRBC) as the antigen inoculated to the foot-pad pad of the mice.
Thus, 10^8 SRBC suspended in 0.05 ml of physiological saline was inoculated by subcutaneous injection to the one side of hind footpad of CDF1 mice (5 mice per group, female, 8-weeks old) to make immunization. At the time of this immunization, an aqueous solution containing 5 mg/kg, 0.5 mg/kg, 0.05 mg/kg or 0.005 mg/kg of arphamenine A or B was administered orally at a single dose to each test mice. 4 Days after the immunization, 10^8 SRBC in 0.05 ml of physiological saline was injected subcutaneously into the other side of the hind footpad of the test mice for elicitation of D.T.H. response. 24 Hours after the eliciting injection, the thickness (in mm) of the hind footpad having received the eliciting injection of SRBC was measured with calipers. At the same time, the thickness of the other side of footpad which had not received the eliciting injection of SRBC was also measured in each mouse.
The increase of footpad thickness (the swelling degree) was calculated by the following equation: [formula]
The effect of arphamenine on the DTH response was evaluated by the following equation: [formula]
Therefore, the assumption was here that the value for the control mice (untreated) was evaluated to be 100%.

[4] = crude powder after CM-Sephadex C-25, Example 3, read-out: anti-aminopeptidase B potency, IC50 (converted)
[5] = light yellow powder after Biogel P-2, Examples 8 and 9, read-out: anti-aminopeptidase B potency (IC50) (converted)
[6] = Table 3, fourth line, 0.005 mg/kg intraperitoneally once daily
[7] = Table 3, third line, 0.005 mg/kg (so in the source) intraperitoneally once daily
[8] = Table 3, 0.5 mg/kg intraperitoneally once daily
[9] = Table 3, 5 mg/kg intraperitoneally once daily
[10] = 0.05 mg/kg orally, **P < 0.05 (Ttest)
[11] = 0.05 mg/kg orally, *P < 0.1 (Ttest)

N=C(N)NCCCC(N)C(=O)CC(Cc1ccccc1)C(=O)O (centres unmarked) [Arphamenine A]
IC50 (aminopeptidase B; colorless, pure powder, Examples 4 and 5, read-out: anti-aminopeptidase B potency, IC50 (converted)): 16.9 nM | IC50 (aminopeptidase B; colorless, pure product, pH 7.0, 37° C., 30 minutes, read-out: IC50, dose giving 50% inhibition to the aminopeptidase B (converted)): 15.6 nM | IC50 (aminopeptidase B; [4]): 20.3 nM | IC50 (aminopeptidase B; [5]): 93.6 nM | Increased thickness of footpad [1, 6]: 5.9 ± 0.79 × 0.1 mm | T/C (%) [1, 6]: 131% | Increased thickness of footpad [1, 7]: 6.5 ± 1.29 × 0.1 mm | T/C (%) [1, 7]: 144% | Increased thickness of footpad [1, 8]: 6.7 ± 1.03 × 0.1 mm | T/C (%) [1, 8]: 149% | Increased thickness of footpad [1, 9]: 5.8 ± 1.19 × 0.1 mm | T/C (%) [1, 9]: 129% | cell-mediated immunity depressed by the tumor (in words) [1]: modulate the cell-mediated immunity depressed by the tumor | activity to enhance cell-mediated immunity (in words) ([2]; 0.05 mg/kg): a significant activity to enhance cell-mediated immunity was obtained | Increased thickness of auricles ([2]; 0.005 mg/kg orally): 6.40 ± 0.63 × 0.1 mm | T/C (%) ([2]; 0.005 mg/kg orally): 143.8% | Increased thickness of auricles ([2]; 0.05 mg/kg orally, *P <0.05): 7.40 ± 0.72 × 0.1 mm | T/C (%) ([2]; 0.05 mg/kg orally): 166.3% | Increased thickness of auricles ([2]; 0.5 mg/kg orally): 6.05 ± 0.97 × 0.1 mm | T/C (%) ([2]; 0.5 mg/kg orally): 136.0% | Average size of tumor (Ehrlich Solid Tumor; 0.005 mg/kg orally): 2378 ± 3138 mm^3 | Average weight of tumor (Ehrlich Solid Tumor; 0.005 mg/kg orally): 1.62 ± 1.44 g | TIR (%), tumor size (Ehrlich Solid Tumor; 0.005 mg/kg orally): 55.2% | TIR (%), tumor weight (Ehrlich Solid Tumor; 0.005 mg/kg orally): 39.3% | TIR (%), tumor size (Ehrlich Solid Tumor; 0.05 mg/kg orally): 41.2% | TIR (%), tumor weight (Ehrlich Solid Tumor; 0.05 mg/kg orally): 37.8% | Average weight of tumor (Ehrlich Solid Tumor; [10]): 1.66 ± 1.50 g | Average size of tumor (Ehrlich Solid Tumor; [11]): 3120 ± 3584 mm^3 | Average size of tumor (Ehrlich Solid Tumor; 0.5 mg/kg orally): 4467 ± 4311 mm^3 | Average weight of tumor (Ehrlich Solid Tumor; 0.5 mg/kg orally): 2.62 ± 1.90 g | TIR (%), tumor size (Ehrlich Solid Tumor; 0.5 mg/kg orally): 15.8% | TIR (%), tumor weight (Ehrlich Solid Tumor; 0.5 mg/kg orally): 1.9% | host-mediated anti-tumor effect in terms of tumor size and tumor weight (in words) (Ehrlich Solid Tumor; 0.05 and 0.005 mg/kg): produced a host-mediated anti-tumor effect | host-mediated anti-tumor effect (in words) (Ehrlich Solid Tumor): exhibit a host-mediated anti-tumor effect | deaths, acute toxicity (mice; iv. dose of 250 mg/kg): no deaths | Increased thickness of footpad ([3]; Table 1, 0.005 mg/kg): 11.9 ± 1.00 × 0.1 mm | T/C (%) ([3]; Table 1, 0.005 mg/kg): 143% | Increased thickness of footpad ([3]; Table 1, 0.05 mg/kg): 13.0 ± 0.97 × 0.1 mm | T/C (%) ([3]; Table 1, 0.05 mg/kg): 157% | Increased thickness of footpad ([3]; Table 1, 0.5 mg/kg): 11.5 ± 1.29 × 0.1 mm | T/C (%) ([3]; Table 1, 0.5 mg/kg): 139% | Increased thickness of footpad ([3]; Table 1, 5 mg/kg): 10.4 ± 0.77 × 0.1 mm | T/C (%) ([3]; Table 1, 5 mg/kg): 125% | cell-mediated immunity in normal animals (in words) [3]: potentiate the cell-mediated immunity in normal animals

N=C(N)NCCCC(N)C(=O)CC(Cc1ccc(O)cc1)C(=O)O (centres unmarked) [Arphamenine B]
IC50 (aminopeptidase B; [4]): 6.84 nM | IC50 (aminopeptidase B; [5]): 56.5 nM | cell-mediated immunity depressed by the tumor (in words) [1]: modulate the cell-mediated immunity depressed by the tumor | host-mediated anti-tumor effect (in words) (Ehrlich Solid Tumor): exhibit a host-mediated anti-tumor effect | deaths, acute toxicity (mice; iv. dose of 150 mg/kg): no deaths | Increased thickness of footpad ([3]; Table 2, 0.005 mg/kg): 12.4 ± 1.40 × 0.1 mm | T/C (%) ([3]; Table 2, 0.005 mg/kg): 143% | Increased thickness of footpad ([3]; Table 2, 0.05 mg/kg): 14.0 ± 1.33 × 0.1 mm | T/C (%) ([3]; Table 2, 0.05 mg/kg): 161% | Increased thickness of footpad ([3]; Table 2, 0.5 mg/kg): 14.7 ± 1.74 × 0.1 mm | T/C (%) ([3]; Table 2, 0.5 mg/kg): 169% | Increased thickness of footpad ([3]; Table 2, 5 mg/kg): 13.7 ± 1.77 × 0.1 mm | T/C (%) ([3]; Table 2, 5 mg/kg): 157% | cell-mediated immunity in normal animals (in words) [3]: potentiate the cell-mediated immunity in normal animals

CC(C)C[C@H](NC(=O)[C@@H](O)[C@H](N)Cc1ccccc1)C(=O)O [Bestatin, reference compound]
Increased thickness of footpad [1, 9]: 6.0 ± 0.96 × 0.1 mm | T/C (%) [1, 9]: 133% | TIR (%), tumor size (Ehrlich Solid Tumor; 0.05 mg/kg orally): 60.6% | TIR (%), tumor weight (Ehrlich Solid Tumor; 0.05 mg/kg orally): 44.9% | Average weight of tumor (Ehrlich Solid Tumor; [10]): 1.47 ± 0.92 g | Average size of tumor (Ehrlich Solid Tumor; [11]): 2089 ± 1946 mm^3 | Increased thickness of footpad ([3]; Table 1, 0.5 mg/kg): 12.5 ± 1.24 × 0.1 mm | T/C (%) ([3]; Table 1, 0.5 mg/kg): 151% | Increased thickness of footpad ([3]; Table 2, 0.5 mg/kg): 13.0 ± 1.13 × 0.1 mm | T/C (%) ([3]; Table 2, 0.5 mg/kg): 149%
